Test results reported in patent US20120021434A1, “METHOD FOR TREATING B CELL REGULATED AUTOIMMUNE DISORDERS” (Synta Pharmaceuticals Corp., priority 2005, published 2012).

What was measured:
ICSBP = ICSBP expression (Western blot); assay type: cell-based; settings: of the transcription factors analyzed
Protocol: (§1) The 10% SDS Polyacrylamide gels (Inveitrogen) were transferred to Pure Nitrocellulose membrane (BioRed, Hercules, Calif.). The membranes were blocked with 5% milk in TBST buffer and incubated with anti-c-Rel, anti-p65, anti-p50, anti-ICSBP or anti-PU-1 antibody (all the antibodies were purchased from Santa Cruz) at a dilution of 1:500 for 1 h at room temperature or overnight at 4C. The membranes were washed and incubated with Horseradish Peroxidase-conjugated anti-rabbit IgG or anti-mouse IgG (Amersham, England) at a dilution of 1:2000 at room temperature for 1 h.
Of the transcription factors that have been analyzed, two factors, ICSBP and c-Rel, seem to be affected by Compound 4/Compound 50 treatment. ICSBP binds indirectly to the Ets-2 site. The primary NF-κB trans-activator for IL-12 is the c-Rel/p50 heterodimer. Other dimers (p65/p50 and p50/p50) either lack activity or have inhibitory functions. Thus, c-Rel plays a role in IL-12 transcription as a result of both activation through NF-κB and its interaction with ICSBP. […] The membranes were blocked with 5% milk in TBST buffer and then incubated with anti-c-Rel, anti-p65, anti-p50, anti-ICSBP or anti-PU-1 antibody (all the antibodies were purchased from Santa Cruz) at a dilution of 1:500 for 1 h at room temperature or overnight at 4° C. The membranes were washed and incubated with Horseradish Peroxidase-conjugated anti-rabbit IgG or anti-mouse IgG (Amersham, England) at a dilution of 1:2000 at room temperature for 1 h.
ICSBP, whose expression was reduced by Compound 50, was over-expressed using co-transfection with the IL-12 promoter-Luc report system. The over-expression construct of ICSBP was generated by PCR from cDNA of human PBMC using primers as follow: ICSBP-exp-F: 5′-[…]-3′ (SEQ ID NO:1) and ICSBP-exp-R: 5′-[…]-3′ (SEQ ID NO:2), the resulting PCR products was ligated to pCI vector (Promega).

c-Rel = target: T1, c-Rel (Homo sapiens, UniProt Q04864); assay: Western blot of THP-1 nuclear extracts: c-Rel; assay type: cell-based; settings: of the transcription factors analyzed
T1 construct: a western blot assay of THP1 nuclear c-Rel, p50 and p65 proteins was carried out; endogenous in cells; host or cells: THP-1; Jurkat
T1 sequence (Q04864 1-619): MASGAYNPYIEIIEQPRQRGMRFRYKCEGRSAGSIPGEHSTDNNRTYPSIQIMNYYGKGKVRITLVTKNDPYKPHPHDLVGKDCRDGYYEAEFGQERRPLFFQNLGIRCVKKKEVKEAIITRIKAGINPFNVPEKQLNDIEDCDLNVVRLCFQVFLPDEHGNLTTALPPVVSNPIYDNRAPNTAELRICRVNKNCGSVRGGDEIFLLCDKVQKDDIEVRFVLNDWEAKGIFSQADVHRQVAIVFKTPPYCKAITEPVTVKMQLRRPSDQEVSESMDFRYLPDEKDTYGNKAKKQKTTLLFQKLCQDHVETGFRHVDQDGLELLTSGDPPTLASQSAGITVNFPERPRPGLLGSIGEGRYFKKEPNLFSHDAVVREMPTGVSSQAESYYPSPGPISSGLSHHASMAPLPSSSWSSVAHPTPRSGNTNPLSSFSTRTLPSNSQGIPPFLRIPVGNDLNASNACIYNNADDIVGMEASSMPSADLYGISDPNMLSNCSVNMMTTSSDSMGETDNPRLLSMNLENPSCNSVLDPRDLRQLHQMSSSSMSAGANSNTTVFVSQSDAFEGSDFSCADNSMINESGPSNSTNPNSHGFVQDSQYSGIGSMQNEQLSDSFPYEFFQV
Protocol: The THP-1 cell, Jurkat cell and RAW264.7 cell line were obtained from American Type Culture Collection (Manassas, Va.). The THP-1 Jurkat cells were cultured in RPMI 1640 (ATCC, Manassas, Va.), supplemented with 10% FCS (ATCC, Manassas, Va.), and 1% penicillin/Streptomycin (Gibco-BRL, New York, N.Y.). The RAW264.7 cells were cultured in DMEM (ATCC, Manassas, Va.) supplemented with 10% FCS (ATCC, Manassas, Va.), and 1% penicillin/Streptomycin (Gibco-BRL, New York, N.Y.). The cells were stimulated with human or murine recombinant IFNγ (100 ng/ml) for 10 h followed by LPS (1 μg/ml) or SAC (0.025%) CpG ([…]) in the presence or absence of Compound 50 at different concentrations for an additional incubation.
THP-1 cells were suspended in 20 volumes of buffer A containing 10 mM KCl, 10 mM HEPES (pH 7.9), 1 mM MgCl2, 1 mM dithiothreitol (DTT), 0.1% Nonidet p40 (NP-40), and 0.5 mM phenylmethylsulfonyl fluoride (PMSF) and homogenized and centrifuged at 10,000 rpm at 4C afor 5 min. Nuclear pellets were then suspended in buffer C containing 400 mM NaCl, 20 mM HEPES 9, pH 7.9), 15 mM MgCl2, 0.2 mM EDTA, 1 mM DTT, 25% glycerol, 1 mM PMSF, and 10 ug of leupeptin, 20 ug of pepstatin, and 10 ug/ml antipain, incubated for 30 min at 4C, and centrifuged at 14,000 rpm for 20 min. The supernatants were dialyzed against buffer D containing 100 mM NaCl, 20 mM HEPES (pH 7.9), 20% glycerol, 1 mM PMSF, and 1 mM DTT.
as §1, with “The membranes were washed and incubated with Horseradish Peroxidase-conjugated anti-rabbit IgG or anti-mouse IgG (Amersham, England) at a dilution of 1:2000 at room temperature for 1 h.” left out
Of the transcription factors that have been analyzed, two factors, ICSBP and c-Rel, seem to be affected by Compound 4/Compound 50 treatment. […]

C(=N\Nc1nc(OCCc2ccccn2)nc(N2CCOCC2)n1)/c1c[nH]c2ccccc12 [Compound 4]
transcription factor ICSBP affected by treatment (ICSBP): affected
transcription factor c-Rel affected by treatment (c-Rel): affected
